{"source": "patent US20260085076A1", "about": "“CRYSTAL FORM OF AROMATIC HETEROCYCLIC COMPOUND, COMPOSITION THEREOF, PRODUCTION METHOD THEREOF AND USES THEREOF” (Hangzhou Yuhong Pharmaceutical Technology Co., Ltd., priority 2023, published 2026)", "key": {"[1]": {"experiment": "Hot stage XRPD, crystal transformation on heating", "format": "physicochemical"}, "[2]": {"tested_on": "p-STAT5 under IL-15 stimulation in PBMC (JAK-STAT pathway)", "experiment": "p-STAT5 ELISA in IL-15 stimulated hPBMC cells", "format": "cell-based, human", "conditions": "45 min compound, 30 min IL-15, ELISA", "description": "Based on the mechanism of JAK-STAT pathway, the effect of the compounds on the JAK-STAT pathway were evaluated by using cytokine IL-15 to stimulate hPBMC cells, and using the downstream STAT5 phosphorylation level as the detection index.\n1. PBMC cell counting plate: 90 μL PBMC was seeded in a 96-well plate (PBMC cell density 80,000/well).\n2. Treatment with test compounds: After cells being seeded, drug treatment was carried out immediately. The drugs to be tested at 5 μL/well (final concentrations 1, 0.5, 0.1, 0.05, 0.01, and 0.005 μM) were incubated at 37° C. for 45 min.\n3. Cytokine IL-15 stimulation: The cells were stimulated by 5 μL IL-15, and incubated at 37° C. for 30 min.\n4. Protein sample collection: The cells were collected in a centrifuge tube and centrifuged for 5 minutes. The supernatant was discarded and cells were lysed with 1× Cell Extraction Buffer PTR.\n5. p-STAT5 detection: Perform detection according to the requirements of the ELISA kit.\nExperimental results: IC50 values of compounds on p-STAT5 under IL-15 stimulation in PBMC"}, "[3]": {"tested_on": "collagen-induced arthritis model in mice", "experiment": "Collagen-induced arthritis model in mice (mCIA)", "format": "in vivo, DBA/1J mice", "conditions": "50 mg/kg once a day, FIG. 77", "description": "1. Construction of collagen-induced arthritis model in mice (mCIA) Experimental purpose: To test the immunosuppressive activity of YZ001052 in the mCIA model. PF-06651600 was used as a positive control compound.\nComplete and incomplete Freund's adjuvants with chicken type II collagen solution were mixed in equal proportions to form emulsions. Except for the blank control group, a mixture of complete Freund's adjuvant and chicken type II collagen solution was injected subcutaneously into the base of the tail and thigh of mice on Day 0. Each mouse was injected subcutaneously with 100 μL at the base of the tail, and injected 50 μL subcutaneously at the base of both thighs (primary immunization). On day 21, mice were injected subcutaneously with 200 μL of a mixture of incomplete Freund's adjuvant and chicken type II collagen as a booster injection (second immunization). Arthritis was considered to occur if the clinical score of at least one limb was >2 points. Paw thickness measurement: Using a vernier caliper to measure the thickness of the left and right hind feet of the mouse and record it, which is the degree of paw swelling. The detection frequency was once every 3 days."}, "[4]": {"experiment": "Influencing factors test of crystal form (high temperature, high humidity)", "format": "physicochemical", "description": "(§1) Samples of crystal form I produced in Example 15 were taken, which were 15 samples of 50 mg each, and sealed with aluminum foil bags. The crystal stability of the above samples were studied under high temperature (60±2° C.), high humidity (RH90%±5%), long-term test (25° C.±2° C., RH 60%±5%) and accelerated test (40° C.±2° C., RH 75%±5%) conditions. […] The long-term and accelerated 3-month crystal form is stable."}, "[5]": {"experiment": "Stability test of crystal form (long-term, accelerated)", "format": "physicochemical", "description": "as §1"}, "[6]": {"experiment": "DVS and isotherm curves, moisture absorption", "format": "physicochemical"}, "[7]": {"experiment": "Solubility at different pH values", "format": "physicochemical", "conditions": "thermodynamic from solid", "description": "Excess samples of crystal form I were respectively added to 10 mL of solutions with different pH value. After being shaken for 24 hours by a constant temperature shaker at 32° C. at 100 rpm, the saturated solutions (with undissolved solids at the bottom) were centrifuged and filtered, then determined linear solutions (formulated with reference substances) with different concentrations and saturated solutions with different pH values under the content item. The solubility of the samples at different pH values were calculated using the standard curve as follows, see FIG. 75 for details."}, "[8]": {"experiment": "Crystal competition experiment in water", "format": "physicochemical", "conditions": "mixture of forms I-IX suspended in water, room temperature, 4 and 7 days, XRD"}, "[9]": {"experiment": "Crystal competition experiment in anhydrous ethanol", "format": "physicochemical", "conditions": "mixture of forms I-IX suspended in anhydrous ethanol, room temperature, 4 days, XRD", "description": "2 mg each of the aromatic heterocyclic compound of crystal form I, crystal form II, crystal form III, crystal form IV, crystal form V, crystal form VI, crystal form VII, crystal form VIII and crystal form IX was added to 3 ml of anhydrous ethanol to form a suspension."}, "SRBC mouse model": {"tested_on": "SRBC mouse model", "experiment": "SRBC-induced delayed-type hypersensitivity (DTH) in mice", "format": "in vivo, Balb/c mice", "conditions": "100 mg/kg gavage once a day, day 0 to day 6, FIG. 76", "description": "Drug formulation: The compound was added to 0.5% CMC-Na solution to formulate a drug suspension (dosage is 10 mg/mL).\nInduction and administration of delayed-type hypersensitivity (DTH): 30 male Balb/c mice were weighed and randomly divided into 6 groups according to body weight, with 5 mice in each group. The experimental period lasted for 7 days. On day 0, mice were sensitized by subcutaneous injection of sheep red blood cells (SRBC). The mice were performed gavage administration at 100 mg/kg (once a day) from day 0 to day 6. On day 6, the mice were injected SRBC into the right hind foot pad for challenge. Measurements were taken on the 7th day of the experiment, and the experiment was concluded.\nPharmacodynamic detection indicators of disease models: the detection and observation indicators are the redness and swelling degree and thickness of the paw pads of SRBC-induced mice. The thickness of the right paw was measured on day 6 before the SRBC injection challenge as the baseline. The thickness of the right paw was measured again at the end of the experiment, the difference in paw thickness before and after the second injection was calculated.\nStatistical analysis: The experimental data were expressed as mean±standard deviation (Mean±SD). All data were statistically analyzed using T-test, with P<0.05 considered statistically significant."}}, "note": "Entries after “also recorded” stand apart in the source; their conditions may differ."}
{"smiles": "C=CC(=O)N1CCc2c(c(-c3ccnc4[nH]ccc34)nn2C)C1", "note": "[crystal form VI, 1-(1-methyl-3-(1H-pyrrolo[2,3-b]pyridin-4-yl)-1,4,6,7-tetrahydro-5H-pyrazolo[4,3-c]pyridin-5-yl)prop-2-en-1-one]", "values": [{"measurement": "crystal transformation in hot stage XRPD", "setting": "[1]", "value": "transformed into crystal form I at 150 °C"}]}
{"smiles": "C=CC(=O)N1C[C@H](Nc2ncnc3[nH]ccc23)CC[C@@H]1C", "note": "[PF-06651600, reference compound]", "values": [{"measurement": "IC50", "setting": "[2]", "value": 85, "unit": "nM"}, {"measurement": "paw swelling", "setting": "[3]; CIA mice", "value": "improved to varying degrees"}, {"measurement": "arthritis score", "setting": "[3]; compared with the model group", "value": "significantly decreased"}]}
{"smiles": "C=CC(=O)N1CCc2c(c(-c3ccnc4[nH]ccc34)nn2C)C1", "note": "[crystal form I, 1-(1-methyl-3-(1H-pyrrolo[2,3-b]pyridin-4-yl)-1,4,6,7-tetrahydro-5H-pyrazolo[4,3-c]pyridin-5-yl)prop-2-en-1-one]", "values": [{"measurement": "Crystal form test result", "setting": "[4]; 0 days", "value": "form I"}, {"measurement": "Crystal form test result", "setting": "[4]; high humidity RH90% ± 5%, 5 days", "value": "form I"}, {"measurement": "Crystal form test result", "setting": "[4]; high humidity RH90% ± 5%, 15 days", "value": "stable; also recorded: form I"}, {"measurement": "Crystal form test result", "setting": "[4]; high temperature 60 ± 2° C., 5 days", "value": "form I"}, {"measurement": "Crystal form test result", "setting": "[4]; high temperature 60 ± 2° C., 15 days", "value": "stable; also recorded: form I"}, {"measurement": "Crystal form test result", "setting": "[5]; 0 days", "value": "form I"}, {"measurement": "Crystal form test result", "setting": "[5]; accelerated 40° C. ± 2° C., RH 75% ± 5%, 1 month", "value": "form I"}, {"measurement": "Crystal form test result", "setting": "[5]; accelerated 40° C. ± 2° C., RH 75% ± 5%, 3 month", "value": "stable; also recorded: form I"}, {"measurement": "Crystal form test result", "setting": "[5]; long-term 25° C. ± 2° C., RH 60% ± 5%, 1 month", "value": "form I"}, {"measurement": "Crystal form test result", "setting": "[5]; long-term 25° C. ± 2° C., RH 60% ± 5%, 3 month", "value": "stable; also recorded: form I"}, {"measurement": "moisture absorption rate", "setting": "[6]", "value": "about 2.4%"}, {"measurement": "solubility at 24 h", "setting": "[7]; aqueous solution of pH 1.0, simulated gastric fluid, pH 1.0, 32° C.", "value": 14500, "unit": "µg/mL"}, {"measurement": "solubility at 24 h", "setting": "[7]; aqueous solution of pH 2.0, simulated gastric fluid, pH 2.0, 32° C.", "value": 2740, "unit": "µg/mL"}, {"measurement": "solubility at 24 h", "setting": "[7]; aqueous solution of pH 3.8, aqueous buffer, pH 3.8, 32° C.", "value": 118, "unit": "µg/mL"}, {"measurement": "solubility at 24 h", "setting": "[7]; aqueous solution of pH 4.5, aqueous buffer, pH 4.5, 32° C.", "value": 68.6, "unit": "µg/mL"}, {"measurement": "solubility at 24 h", "setting": "[7]; aqueous solution of pH 6.8, aqueous buffer, pH 6.8, 32° C.", "value": 58.9, "unit": "µg/mL"}, {"measurement": "solubility at 24 h", "setting": "[7]; aqueous solution of pH 8.0, aqueous buffer, pH 8.0, 32° C.", "value": 60.8, "unit": "µg/mL"}, {"measurement": "solubility at 24 h", "setting": "[7]; water, 32° C.", "value": 53.2, "unit": "µg/mL"}, {"measurement": "crystal stability in water", "setting": "[8]", "value": "good crystal stability in water"}, {"measurement": "crystal stability in ethanol", "setting": "[9]", "value": "good crystal stability in the presence of ethanol"}]}
{"smiles": "C=CC(=O)N1CCc2c(c(-c3ccnc4[nH]ccc34)nn2C)C1", "note": "[crystal form II, 1-(1-methyl-3-(1H-pyrrolo[2,3-b]pyridin-4-yl)-1,4,6,7-tetrahydro-5H-pyrazolo[4,3-c]pyridin-5-yl)prop-2-en-1-one]", "values": [{"measurement": "moisture absorption rate", "setting": "[6]", "value": "about 2.4%"}, {"measurement": "crystal transformation in hot stage XRPD", "setting": "[1]", "value": "transformed into crystal form I at 150 °C"}]}
{"smiles": "C=CC(=O)N1CCc2c(c(-c3ccnc4[nH]ccc34)nn2C)C1", "note": "[crystal form III, 1-(1-methyl-3-(1H-pyrrolo[2,3-b]pyridin-4-yl)-1,4,6,7-tetrahydro-5H-pyrazolo[4,3-c]pyridin-5-yl)prop-2-en-1-one]", "values": [{"measurement": "moisture absorption rate", "setting": "[6]", "value": "about 2.2%"}, {"measurement": "crystal stability in water", "setting": "[8]", "value": "good crystal stability in water"}, {"measurement": "crystal transformation in hot stage XRPD", "setting": "[1]", "value": "no crystal transformation at 140 °C"}]}
{"smiles": "C=CC(=O)N1CCc2c(c(-c3ccnc4[nH]ccc34)nn2C)C1", "note": "[crystal form VIII, 1-(1-methyl-3-(1H-pyrrolo[2,3-b]pyridin-4-yl)-1,4,6,7-tetrahydro-5H-pyrazolo[4,3-c]pyridin-5-yl)prop-2-en-1-one]", "values": [{"measurement": "moisture absorption rate", "setting": "[6]", "value": "about 1.3%"}, {"measurement": "crystal transformation in hot stage XRPD", "setting": "[1]", "value": "most of the crystals were transformed into crystal form I at 150 °C"}]}
{"smiles": "C=CC(=O)N1CCc2c(c(-c3ccnc4[nH]ccc34)nn2C)C1", "note": "[crystal form IX, 1-(1-methyl-3-(1H-pyrrolo[2,3-b]pyridin-4-yl)-1,4,6,7-tetrahydro-5H-pyrazolo[4,3-c]pyridin-5-yl)prop-2-en-1-one]", "values": [{"measurement": "crystal transformation in hot stage XRPD", "setting": "[1]", "value": "transformed into crystal form I at 155 °C"}]}
{"smiles": "C=CC(=O)N1CCc2c(c(-c3ccnc4[nH]ccc34)nn2C)C1", "note": "[crystal form VII, 1-(1-methyl-3-(1H-pyrrolo[2,3-b]pyridin-4-yl)-1,4,6,7-tetrahydro-5H-pyrazolo[4,3-c]pyridin-5-yl)prop-2-en-1-one]", "values": [{"measurement": "moisture absorption rate", "setting": "[6]", "value": "about 1.3%"}, {"measurement": "crystal transformation in hot stage XRPD", "setting": "[1]", "value": "transformed to crystal form I at 150 °C"}]}
{"smiles": "C=CC(=O)N1CCc2[nH]nc(-c3ccnc4[nH]ccc34)c2C1", "note": "[YZ001065]", "values": [{"measurement": "immunosuppressive effect on SRBC-induced delayed-type hypersensitivity (right paw thickness)", "setting": "SRBC mouse model", "value": "significant immunosuppressive effects"}]}
{"smiles": "C=CC(=O)N1Cc2c(-c3ccnc4[nH]ccc34)nn(C(C)C)c2C[C@H]1C", "note": "[YZ001085]", "values": [{"measurement": "immunosuppressive effect on SRBC-induced delayed-type hypersensitivity (right paw thickness)", "setting": "SRBC mouse model", "value": "significant immunosuppressive effects"}]}
{"smiles": "C=C(F)C(=O)N1CCc2c(c(-c3ccnc4[nH]ccc34)nn2C)C1", "note": "[YZ001054]", "values": [{"measurement": "immunosuppressive effect on SRBC-induced delayed-type hypersensitivity (right paw thickness)", "setting": "SRBC mouse model", "value": "significant immunosuppressive effects"}]}
